# Laboratory results as given in patent US10407410B2, “Pyridin-3-yl acetic acid derivatives as inhibitors of human immunodeficiency virus replication” (priority 2016, dated 2019).
# System: NL-RLuc virus (HIV)
# Assay: Inhibition of HIV replication (NL-RLuc luciferase reporter virus in MT-2 cells)
# Assay type: cell-based
# Settings: Human immunodeficiency virus 1, MT2, 120 h
# Description: Inhibition of HIV Replication
# A recombinant NL-RLuc proviral clone was constructed in which a section of the nef gene from NL4-3 was replaced with the Renilla Luciferase gene. This virus is fully infectious and can undergo multiple cycles of replication in cell culture. In addition, the luciferous reporter provides a simple and easy method for quantitating the extent of virus growth and consequently, the antiviral activity of test compounds. The plasmid pNLRLuc contains the proviral NL-Rluc DNA cloned into pUC18 at the PvuII site. The NL-RLuc virus was prepared by transfection of 293T cells with the plasmid pNLRLuc. Transfections were performed using the LipofectAMINE PLUS kit from Invitrogen (Carlsbad, Calif.) according to the manufacturer and the virus generated was titered in MT-2 cells. For susceptibility analyses, the titrated virus was used to infect MT-2 cells in the presence of compound, and after 5 days of incubation, cells were processed and quantitated for virus growth by the amount of expressed luciferase. Assay media was RPMI 1640 supplemented with 10% heat inactivated fetal bovine serum (FBS), 100 units/ml penicillin G/100 units/ml streptomycin, 10 mM HEPES buffer pH 7.55 and 2 mM L-glutamine. The results from at least 2 experiments were used to calculate the EC50 values. Luciferase was quantitated using the Dual Luciferase kit from Promega (Madison, Wis.). Susceptibility of viruses to compounds was determined by incubation in the presence of serial dilutions of the compound. The 50% effective concentration (EC50) was calculated by using the exponential form of the median effect equation where (Fa)=1/[1+(ED50/drug conc.)^m] (Johnson V A, Byington R T. Infectivity Assay. In Techniques in HIV Research. ed. Aldovini A, Walker B D. 71-76. New York: Stockton Press. 1990).
row,SMILES,EC50 [nM]
1,"Cc1nc(C)c([C@H](OC(C)(C)C)C(=O)O)c(N2CCC(C)(C)CC2)c1-c1ccc2cc[nH]c2c1 [Example 4, (S)-2-(tert-butoxy)-2-(4-(4,4-dimethylpiperidin-1-yl)-5-(1H-indol-6-yl)-2,6-dimethylpyridin-3-yl)acetic acid]",233
2,"Cc1nc(C)c([C@H](OC(C)(C)C)C(=O)O)c(N2CCC(C)(C)CC2)c1-c1cnc2ccccc2c1 [Example 2, (S)-2-(tert-butoxy)-2-(4-(4,4-dimethylpiperidin-1-yl)-2,6-dimethyl-5-(quinolin-3-yl)pyridin-3-yl)acetic acid]",73
3,"Cc1nc(C)c([C@H](OC(C)(C)C)C(=O)O)c(N2CCC(C)(C)CC2)c1-c1ccc2c(c1)CC/C(=C\c1ccc(F)cc1)C2 [Example 25, (S,E)-2-(tert-Butoxy)-2-(4-(4,4-dimethylpiperidin-1-yl)-5-(6-(4-fluorobenzylidene)-5,6,7,8-tetrahydronaphthalen-2-yl)-2,6-dimethylpyridin-3-yl)acetic acid]",5
4,"Cc1nc(C)c([C@H](OC(C)(C)C)C(=O)O)c(N2CCC(C)(C)CC2)c1-c1ccc2c(c1)CC[C@@H](Cc1ccc(F)cc1)O2 [Example 34, (S)-2-tert-Butoxy-2-(4-(4,4-dimethylpiperidin-1-yl)-5-((S)-2-(4-fluorobenzyl)chroman-6-yl)-2,6-dimethylpyridin-3-yl)acetic acid]",2
5,"Cc1nc(C)c([C@H](OC(C)(C)C)C(=O)O)c(N2CCC(C)(C)CC2)c1-c1ccc2[nH]c(=O)cc(OCc3ccc(F)cc3)c2c1 [Example 18, (S)-2-(tert-butoxy)-2-(4-(4,4-dimethylpiperidin-1-yl)-5-(4-((4-fluorobenzyl)oxy)-2-oxo-1,2-dihydroquinolin-6-yl)-2,6-dimethylpyridin-3-yl)acetic acid]",504
6,"Cc1cccc(C2CCc3cc(-c4c(C)nc(C)c([C@H](OC(C)(C)C)C(=O)O)c4N4CCC(C)(C)CC4)ccc3O2)n1 (stereo partly drawn) [Example 44, (2S)-2-tert-Butoxy-2-(4-(4,4-dimethylpiperidin-1-yl)-2,6-dimethyl-5-(2-(6-methylpyridin-2-yl)chroman-6-yl)pyridin-3-yl)acetic acid]",8
7,"Cc1nc(C)c([C@H](OC(C)(C)C)C(=O)O)c(N2CCC(C)(C)CC2)c1-c1ccc2c(c1)CCC(Oc1ccc(F)cc1)C2 (stereo partly drawn) [Example 27, (2S)-2-(tert-Butoxy)-2-(4-(4,4-dimethylpiperidin-1-yl)-5-(6-(4-fluorophenoxy)-5,6,7,8-tetrahydronaphthalen-2-yl)-2,6-dimethylpyridin-3-yl)acetic acid]",6
8,"Cc1ccc(C[C@H]2CCc3cc(-c4c(C)nc(C)c([C@H](OC(C)(C)C)C(=O)O)c4N4CCC(C)(C)CC4)ccc3O2)c(F)c1 [Example 31, (S)-2-tert-Butoxy-2-(4-(4,4-dimethylpiperidin-1-yl)-5-((R)-2-(2-fluoro-4-methylbenzyl)chroman-6-yl)-2,6-dimethylpyridin-3-yl)acetic acid]",3
9,"Cc1nc(CO)c(-c2ccc3c(c2)CC[C@H](Cc2ccc(F)cc2)O3)c(N2CCC(C)(C)CC2)c1[C@H](OC(C)(C)C)C(=O)O [Example 37, (S)-2-tert-Butoxy-2-(4-(4,4-dimethylpiperidin-1-yl)-5-((R)-2-(4-fluorobenzyl)chroman-6-yl)-6-(hydroxymethyl)-2-methylpyridin-3-yl)acetic acid]",1
10,"Cc1nc(C)c([C@H](OC(C)(C)C)C(=O)O)c(N2CCC(C)(C)CC2)c1-c1ccc2ccncc2c1 [Example 1, (S)-2-(tert-Butoxy)-2-(4-(4,4-dimethylpiperidin-1-yl)-5-(isoquinolin-7-yl)-2,6-dimethylpyridin-3-yl)acetic acid]",47
11,"Cc1nc(C)c([C@H](OC(C)(C)C)C(=O)O)c(N2CCC(C)(C)CC2)c1-c1ccc2c(c1)CCC(Cc1ccc(F)cc1)C2 (stereo partly drawn) [Example 26, (2S)-2-(tert-Butoxy)-2-(4-(4,4-dimethylpiperidin-1-yl)-5-(6-(4-fluorobenzyl)-5,6,7,8-tetrahydronaphthalen-2-yl)-2,6-dimethylpyridin-3-yl)acetic acid]",10
12,"Cc1ncsc1CN1CCc2cc(-c3c(C)nc(C)c([C@H](OC(C)(C)C)C(=O)O)c3N3CCC(C)(C)CC3)ccc2C1=O [Example 16, (S)-2-(tert-butoxy)-2-(4-(4,4-dimethylpiperidin-1-yl)-2,6-dimethyl-5-(2-((4-methylthiazol-5-yl)methyl)-1-oxo-1,2,3,4-tetrahydroisoquinolin-6-yl)pyridin-3-yl)acetic acid]",6
13,"Cc1nc(C)c([C@H](OC(C)(C)C)C(=O)O)c(N2CCC(C)(C)CC2)c1-c1ccc2c(c1)CCC(COc1cccc(F)c1F)O2 (stereo partly drawn) [Example 41, (2S)-2-tert-Butoxy-2-(5-(2-((2,3-difluorophenoxy)methyl)chroman-6-yl)-4-(4,4-dimethylpiperidin-1-yl)-2,6-dimethylpyridin-3-yl)acetic acid]",3
14,"Cc1nc(CO)c(-c2ccc3c(c2)CC[C@@H](Cc2ccccc2)O3)c(N2CCC(C)(C)CC2)c1[C@H](OC(C)(C)C)C(=O)O [Example 33, (S)-2-(5-((S)-2-Benzylchroman-6-yl)-4-(4,4-dimethylpiperidin-1-yl)-6-(hydroxymethyl)-2-methylpyridin-3-yl)-2-tert-butoxyacetic acid]",7
15,"Cc1nc(C)c([C@H](OC(C)(C)C)C(=O)O)c(N2CCC(C)(C)CC2)c1-c1ccc2c(c1)CCNC2=O [Example 10, (S)-2-(tert-butoxy)-2-(4-(4,4-dimethylpiperidin-1-yl)-2,6-dimethyl-5-(1-oxo-1,2,3,4-tetrahydroisoquinolin-6-yl)pyridin-3-yl)acetic acid]",307
16,"Cc1nc(C)c([C@H](OC(C)(C)C)C(=O)O)c(N2CCC(C)(C)CC2)c1-c1ccc2c(c1)C(=O)C(Cc1ccc(F)cc1)(Cc1ccc(F)cc1)C(=O)N2 [Example 19, (S)-2-(5-(3,3-bis(4-fluorobenzyl)-2,4-dioxo-1,2,3,4-tetrahydroquinolin-6-yl)-4-(4,4-dimethylpiperidin-1-yl)-2,6-dimethylpyridin-3-yl)-2-(tert-butoxy)acetic acid]",240
17,"Cc1nc(C)c([C@H](OC(C)(C)C)C(=O)O)c(N2CCC(C)(C)CC2)c1-c1ccc2sc(C(=O)O)cc2c1 [Example 6, (S)-5-(5-(tert-butoxy(carboxy)methyl)-4-(4,4-dimethylpiperidin-1-yl)-2,6-dimethylpyridin-3-yl)benzo[b]thiophene-2-carboxylic acid]",66000
18,"CCOc1ccc(S(=O)(=O)N2Cc3ccc(-c4c(C)nc(C)c([C@H](OC(C)(C)C)C(=O)O)c4N4CCC(C)(C)CC4)cc3C2)cc1 [Example 23, (S)-2-(tert-butoxy)-2-(4-(4,4-dimethylpiperidin-1-yl)-5-(2-((4-ethoxyphenyl)sulfonyl)isoindolin-5-yl)-2,6-dimethylpyridin-3-yl)acetic acid]",17
19,"Cc1nc(C)c([C@H](OC(C)(C)C)C(=O)O)c(N2CCC(C)(C)CC2)c1-c1ccc2c(c1)CCN(Cc1ccc(F)cc1)C2=O [Example 14, (S)-2-(tert-butoxy)-2-(4-(4,4-dimethylpiperidin-1-yl)-5-(2-(4-fluorobenzyl)-1-oxo-1,2,3,4-tetrahydroisoquinolin-6-yl)-2,6-dimethylpyridin-3-yl)acetic acid]",6
20,"Cc1nc(C)c([C@H](OC(C)(C)C)C(=O)O)c(N2CCC(C)(C)CC2)c1-c1coc2ccccc12 [Example 7, (2S)-2-(5-(benzofuran-3-yl)-4-(4,4-dimethylpiperidin-1-yl)-2,6-dimethylpyridin-3-yl)-2-(tert-butoxy)acetic acid]",288
21,"Cc1nc(C)c([C@H](OC(C)(C)C)C(=O)O)c(N2CCC(C)(C)CC2)c1-c1ccc2c(c1)OCCN2C [Example 9, (S)-2-(tert-butoxy)-2-(4-(4,4-dimethylpiperidin-1-yl)-2,6-dimethyl-5-(4-methyl-3,4-dihydro-2H-benzo[b][1,4]oxazin-7-yl)pyridin-3-yl)acetic acid]",87
